Source: EP1529533A1, “Use of GH secretagogues in hypoxic-ischemic brain injury” (Sahltech I Göteborg AB, priority 2003, dated 2005)
Where a SMILES comes first, the peptide text is derived from it. [ ]: non-standard residue; d: D form. dTrp(2-Me) = Cc1[nH]c2ccccc2c1C[C@@H](N)C(=O)O

Test: Body temperature, mortality and body weight in the hypoxia-ischemia study
Type: in vivo, rats
Details: between the two groups (hexarelin vs. vehicle); data not shown
From the text: In a neonatal model that has previously been described (Rice J. E., V. R. C. Brierley, Ann. Neurol. 9 (1981), 1126-35; Hagberg H. et al., Acta Paedeatr. Suppl 442 (1997), 85-88). Seven-day-old out bred Wistar Fue rats were anesthetised with enflurane (3,5% for induction and 1,5% for maintenance) in a mixture of nitrous oxide and oxygen on a snout mask. The left common carotid artery was cut between two prolene sutures (9-0). After anesthesia and surgery the animals were returned to there dams and allowed to recover for 60 minutes. They were thereafter exposed to 60 minutes of hypoxia in a humidified chamber at 36°C with 7.7±0.01% oxygen in nitrogen. The pups were returned to and kept with their dams until they were killed at different time points after the insult Animals were either perfused intracardially with saline and 5% buffered formaldehyde (Histofix; Histolab, Göteborg, Sweden) for preparation of paraffin sections or fresh tissue were immediately frozen in isopenthane on dry ice for preparation of protein homogenates. The animal ethics committee in Gothenburg approved the animal studies.
Animals received daily intracerebral injections of 5 µl solution containing either 5µg hexarelin or vehicle (NaCl 0.9 mg/ml). Injections were headed for the left ventricular at 1.5 mm lateral to the Sagittal suture, 5.7 mm rostral to lambda and 2.8 mm deep to the skull surface with a special made needle of 27 gauge. Injection velocity of 1.5 µl/min with a Hamilton syringe connected to a MCA pump.
Brain injury was evaluated and observer blinded between the study groups using a neuropathological scoring system where injury in cortex was graded from 0-4 with 0 being no observable injury and 4 being confluent infarction encompassing most of the hemisphere. The damage in the hippocampus, thalamus and striatum was assessed regarding both hypothrophy (shrinkage of cells) 0-3 and observable cell injury/infarction 0-3, resulting in a scoring for each region 0-6. The total score 0-22 was the sum score for all the four regions.

Cc1[nH]c2ccccc2c1C[C@@H](NC(=O)[C@@H](N)Cc1cnc[nH]1)C(=O)N[C@@H](C)C(=O)N[C@@H](Cc1c[nH]c2ccccc12)C(=O)N[C@H](Cc1ccccc1)C(=O)N[C@@H](CCCCN)C(N)=O [Hexarelin] (H-H[dTrp(2-Me)]AW[dF]K-NH2)
no differences: body temperature | body weight | mortality
